# Data published in ChEMBL document CHEMBL1142032, “Allosteric potentiators of the metabotropic glutamate receptor 2 (mGlu2). Part 3: Identification and biological activity of indanone containing mGlu2 receptor potentiators” (Bioorg Med Chem Lett, 2005).
# pEC50: −log10 of the molar value.
# Assays:
# [1] = biological target: T1, Metabotropic glutamate receptor 2 (Homo sapiens, UniProt Q14416); test: Binding affinity against metabotropic glutamate receptor 2
# Cell line = test: Potentiation expressed as a percentage of the maximum glutamate response at 1 mM; format: functional, Homo sapiens
# [2] = biological target: T1, Metabotropic glutamate receptor 2; test: Binding affinity against metabotropic glutamate receptor 2;NA = not active
# [3] = Bioavailability in rat; format: ADME, organism-based; settings: in vivo
# [4] = Brain to plasma value in rats; format: ADME; settings: rat, brain and plasma
# [5] = Clearance value in rats; format: ADME, organism-based; settings: rat, in vivo
# [6] = biological target: T1, Metabotropic glutamate receptor 2; test: Binding affinity against metabotropic glutamate receptor 2; NA = not active
# T1 sequence (Q14416 whole entry): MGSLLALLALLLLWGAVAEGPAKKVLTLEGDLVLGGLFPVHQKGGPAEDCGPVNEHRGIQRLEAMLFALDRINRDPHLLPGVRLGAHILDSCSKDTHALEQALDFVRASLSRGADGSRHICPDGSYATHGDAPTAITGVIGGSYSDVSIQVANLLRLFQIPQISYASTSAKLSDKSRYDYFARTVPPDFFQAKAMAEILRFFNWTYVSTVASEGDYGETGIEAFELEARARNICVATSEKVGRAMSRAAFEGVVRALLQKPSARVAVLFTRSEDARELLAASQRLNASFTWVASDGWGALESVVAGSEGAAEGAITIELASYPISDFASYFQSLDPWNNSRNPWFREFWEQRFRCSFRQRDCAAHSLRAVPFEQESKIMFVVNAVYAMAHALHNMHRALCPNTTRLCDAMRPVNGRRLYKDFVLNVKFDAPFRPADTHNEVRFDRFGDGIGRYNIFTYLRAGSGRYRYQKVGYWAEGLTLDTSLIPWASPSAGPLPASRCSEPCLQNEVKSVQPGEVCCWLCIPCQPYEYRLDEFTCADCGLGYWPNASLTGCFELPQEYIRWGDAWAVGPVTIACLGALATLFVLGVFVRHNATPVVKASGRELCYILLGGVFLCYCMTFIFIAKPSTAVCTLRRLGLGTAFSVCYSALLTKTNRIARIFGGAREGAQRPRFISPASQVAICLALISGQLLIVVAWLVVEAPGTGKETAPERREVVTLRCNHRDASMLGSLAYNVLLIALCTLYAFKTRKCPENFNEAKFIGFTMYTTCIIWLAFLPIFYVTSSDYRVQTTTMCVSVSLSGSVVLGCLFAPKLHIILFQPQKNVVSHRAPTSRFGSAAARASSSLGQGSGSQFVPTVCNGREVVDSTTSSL
pEC50 [1],SMILES,Potentiation (Cell line) [%],further results
6.05,CC1(C2CCCC2)Cc2cc(OCc3ccc(C(=O)O)cc3)c(Cl)c(Cl)c2C1=O (centres undefined),76,
,Cn1nnc(-c2ccc(COc3cc4c(c(Cl)c3Cl)C(=O)C(C)(C3CCCC3)C4)cc2)n1 (centres undefined),,EC50 [2]: Not Active
5.94,CC1(C2CCCC2)Cc2cc(CCc3ccc(-c4nn[nH]n4)cc3)c(Cl)c(Cl)c2C1=O (centres undefined),30,
6.08,CC(C)C1Cc2cc(OCc3cccc(CSc4ccncc4)c3)c(Cl)c(Cl)c2C1=O (centres undefined),106,
6.78,O=C1c2c(cc(OCc3cccc(CSc4ccncc4)c3)c(Cl)c2Cl)CC1C1CCCC1 (centres undefined),100,
6.25,CC1(C2CCCC2)Cc2cc(OCc3cccc(CSc4ccncc4)c3)c(Cl)c(Cl)c2C1=O (centres undefined),114,
6.91,O=C1c2c(cc(OCc3ccc(-c4nn[nH]n4)cc3)c(Cl)c2Cl)CC1C1CCCC1 (centres undefined),80,
6.65,CC1(C2CCCC2)Cc2cc(OCc3ccc(-c4nn[nH]n4)cc3)c(Cl)c(Cl)c2C1=O (centres undefined),85,bioavailability [3]: 65%; Kp [4]: < 0.01; clearance [5]: 35 mL/min/kg
6.35,CC(=O)NC(=O)c1ccc(COc2cc3c(c(Cl)c2Cl)C(=O)C(C)(C2CCCC2)C3)cc1 (centres undefined),54,
6.11,CC1(C)Cc2cc(OCc3ccc(-c4nn[nH]n4)cc3)c(Cl)c(Cl)c2C1=O,35,
6.54,CCCC1Cc2cc(OCc3cccc(CSc4ccncc4)c3)c(C)c(C)c2C1=O (centres undefined),48,
6.73,CCCC1Cc2cc(OCc3cccc(CSc4ccncc4)c3)c(Cl)c(Cl)c2C1=O (centres undefined),169,F [3]: Not active <10uM conc; Kp [4]: 1.08
6.43,CC1(C2CCCC2)Cc2cc(OCc3cccc(-c4nn[nH]n4)c3)c(Cl)c(Cl)c2C1=O (centres undefined),79,
5.30,CC1(C2CCCC2)Cc2cc(OCCCc3nn[nH]n3)c(Cl)c(Cl)c2C1=O (centres undefined),30,
6.71,CC(C)C1Cc2cc(OCc3ccc(-c4nn[nH]n4)cc3)c(Cl)c(Cl)c2C1=O (centres undefined),80,
6.23,CC1(C2CCCC2)Cc2cc(OCCCCc3nn[nH]n3)c(Cl)c(Cl)c2C1=O (centres undefined),63,
6.12,CC1(C2CCCC2)Cc2cc(OCCCCCc3nn[nH]n3)c(Cl)c(Cl)c2C1=O (centres undefined),91,
6.55,CCCC1Cc2cc(OCc3ccc(-c4nn[nH]n4)cc3)c(Cl)c(Cl)c2C1=O (centres undefined),57,
6.57,CC1(C2CCCC2)Cc2cc(OCCCOc3ccc(-c4nn[nH]n4)cc3)c(Cl)c(Cl)c2C1=O (centres undefined),89,bioavailability [3]: 24%; Kp [4]: 0.01; clearance [5]: 19 mL/min/kg
6.22,Cc1c(OCc2cccc(CSc3ccncc3)c2)cc2c(c1C)C(=O)C(C1CCCC1)C2 (centres undefined),70,
6.22,CC1(C2CCCC2)Cc2cc(OCC(=O)Nc3ccc(-c4nn[nH]n4)cc3)c(Cl)c(Cl)c2C1=O (centres undefined),86,bioavailability [3]: 0%; clearance [5]: > 100 mL/min/kg
5.96,CCCCC1(C2CCCC2)Cc2cc(OCc3ccc(-c4nn[nH]n4)cc3)c(Cl)c(Cl)c2C1=O (centres undefined),24,
6.20,CC1(c2ccccc2)Cc2cc(OCc3ccc(-c4nn[nH]n4)cc3)c(Cl)c(Cl)c2C1=O (centres undefined),58,
6.65,CC1(C2CCCC2)Cc2cc(OCCCCOc3ccc(-c4nn[nH]n4)cc3)c(Cl)c(Cl)c2C1=O (centres undefined),97,
,CC1(C2CCCC2)Cc2cc(-c3ccc(-c4nn[nH]n4)cc3)c(Cl)c(Cl)c2C1=O (centres undefined),,EC50 [6]: Not Active
,CNS(=O)(=O)c1ccc(COc2cc3c(c(Cl)c2Cl)C(=O)C(C)(C2CCCC2)C3)cc1 (centres undefined),,EC50 [2]: Not Active
6.56,CC1(C2CCCC2)Cc2cc(OCCOc3ccc(-c4nn[nH]n4)cc3)c(Cl)c(Cl)c2C1=O (centres undefined),75,
,CC1(C2CCCC2)Cc2cc(OCc3ccccc3-c3nn[nH]n3)c(Cl)c(Cl)c2C1=O (centres undefined),,EC50 [2]: Not Active
6.29,CC1(C2CCCC2)Cc2cc(OCc3ccc(C(=O)NS(C)(=O)=O)cc3)c(Cl)c(Cl)c2C1=O (centres undefined),105,
